Laboratory results: paper PMC8619001, “Discovery of New Ginsenol-Like Compounds with High Antiviral Activity” (Molecules, 2021)

Experiments:
[1] = test system: influenza virus A/Puerto Rico/8/34 (H1N1); test: organism not typed; format: cell-based; details: for IC50: MDCK, 72 h, read-out: IC50 H1N1
in vitro = details: dog
HSV-1 = test system: HSV-1; design: method as in PMID 20008902; details: HSV-1, Figure 1; cited from earlier work
[2] = test system: influenza virus A/Leningrad/134/17/1957 (H2N2); details: cited from earlier work
A/Anhui/1/2013 (H7N9) = test: microbe, parasite or virus in culture; format: cell-based, influenza virus A/Anhui/1/2013 (H7N9); details: Influenza A virus, H1N1 / H7N9, MDCK, 72 h, read-out: IC50 H1N1
[3] = test system: influenza virus A/Puerto Rico/8/34 (H1N1); format: cell-based
[4] = target: viral hemagglutinin (HA) of influenza virus A/Puerto Rico/8/34 (H1N1) (Influenza A virus, UniProt P03452); format: biochemical
[5] = test system: HA of A/Vladivostok/2/2009 (H1N1); format: biochemical, influenza virus A/Vladivostok/2/2009 (H1N1); details: pH 5
[6] = test system: HA of A/California/7/2009 (H1N1); format: biochemical, influenza virus A/California/07/09 (H1N1)pdm09; details: pH 5
HA of A/Puerto Rico/8/34 = HA of A/Puerto Rico/8/34 (Influenza A virus, UniProt P03452); format: biochemical, influenza virus A/Puerto Rico/8/34 (H1N1); details: pH 5
[7] = test system: B/Florida/4/2006 (Yamagata-like); test: microbe, parasite or virus in culture; format: cell-based, influenza virus B/Florida/4/2006 (Yamagata-like); details: Influenza B virus, MDCK, 72 h, read-out: IC50 H1N1
[8] = In vivo toxicity study (LD50)
A/Aichi/2/1968 (H3N2) = test: microbe, parasite or virus in culture; format: cell-based, influenza virus A/Aichi/2/68 (H3N2); details: Influenza A virus, H1N1 / H3N2, MDCK, 72 h, read-out: IC50 H1N1
[9] = test system: influenza virus A/Puerto Rico/8/1934 (H1N1); test: organism not typed; format: cell-based, influenza virus A/Puerto Rico/8/34 (H1N1); details: MDCK, 24 h, read-out: IC50 (virus yield reduction)
[10] = test system: A/California/7/2009 (H1N1) pdm09; test: microbe, parasite or virus in culture; format: cell-based, influenza virus A/California/07/09 (H1N1)pdm09; details: Influenza A virus, H1N1, MDCK, 72 h, read-out: IC50 H1N1
[11] = test system: A/Mallard/Pennsylvania/1984 (H5N2); test: microbe, parasite or virus in culture; format: cell-based, influenza virus A/mallard/Pennsylvania/10218/84 (H5N2); details: Influenza A virus, H1N1 / H5N2, MDCK, in Anas platyrhynchos, 72 h, read-out: IC50 H1N1
[12] = test system: HA of influenza viruses A of H3, H5, and H7 subtypes and influenza virus B; format: biochemical; details: pH 5

Chain of HA of A/Puerto Rico/8/34 (P03452 18-343 limits assumed): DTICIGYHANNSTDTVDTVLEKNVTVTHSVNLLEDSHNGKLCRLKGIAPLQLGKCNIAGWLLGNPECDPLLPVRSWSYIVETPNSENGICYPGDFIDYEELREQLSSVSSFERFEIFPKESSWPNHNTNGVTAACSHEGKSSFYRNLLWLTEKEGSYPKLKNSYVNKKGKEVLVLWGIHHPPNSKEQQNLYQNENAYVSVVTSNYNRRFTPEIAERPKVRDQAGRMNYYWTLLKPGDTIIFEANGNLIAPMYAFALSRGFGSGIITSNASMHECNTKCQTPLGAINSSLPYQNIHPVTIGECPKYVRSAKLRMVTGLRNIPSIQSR
Chain of HA of A/Puerto Rico/8/34 (P03452 344-565 limits assumed): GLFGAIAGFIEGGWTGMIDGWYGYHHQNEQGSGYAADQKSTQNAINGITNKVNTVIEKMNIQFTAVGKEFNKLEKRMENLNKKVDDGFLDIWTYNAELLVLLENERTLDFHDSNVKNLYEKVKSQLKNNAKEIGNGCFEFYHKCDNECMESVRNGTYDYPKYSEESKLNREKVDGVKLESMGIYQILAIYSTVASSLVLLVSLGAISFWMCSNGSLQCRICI
Chain of viral hemagglutinin (HA) of influenza virus A/Puerto Rico/8/34 (H1N1) (P03452 18-343 limits assumed): as the sequence (P03452 18-343 limits assumed) above
Chain of viral hemagglutinin (HA) of influenza virus A/Puerto Rico/8/34 (H1N1) (P03452 344-565 limits assumed): as the sequence (P03452 344-565 limits assumed) above

| SMILES | IC50 [1] | CC50 (in vitro) | SI [1] | also measured |
| --- | --- | --- | --- | --- |
| CCOC(=O)C1=C[C@@H](OC(CC)CC)[C@H](NC(C)=O)[C@@H](N)C1 [Oseltamivir, reference compound] | 310 ± 40 nM | > 200 µM |  |  |
| CC1(C)CC2(N)C3(C)CCCC2(C)C1CC3.Cl (stereo not drawn) [Compound 2, 2,2,4,7a-tetramethyloctahydro-3aH-1,4-ethanoinden-3a-amine hydrochloride] | 450 ± 60 nM | 15.4 ± 1.2 µM | 34 | melting point: 257.8 to 261.3 °C |
| CC(C)=CCC/C(C)=C/CC/C(C)=C/CO [Farnesol] |  |  |  | SI (HSV-1): 11 |
| C[C@H]1CC[C@@]2(O)C(C)(C)[C@@H]3CC[C@@]2(C)[C@H]1C3 [Patchouli alcohol] |  |  |  | SI [2]: 4.9 |
| CC(C)C(=O)NC12CC(C)(C)C3CCC1(C)CCCC32C (stereo not drawn) [Compound 1c, N-(2,2,4,7a-tetramethyloctahydro-3aH-1,4-ethanoinden-3a-yl)isobutyramide] | 210 ± 29 nM | > 1030 µM | 5000 | melting point: 103 °C |
| C=C1CCC2OC2(C)CCC2C1CC2(C)C (stereo not drawn) [beta-Caryophyllene oxide] |  |  |  | SI (HSV-1): 25 |
| CC(=O)NC12CC(C)(C)C3CCC1(C)CCCC32C [Compound 1a, (1S,3aR,4R,7aS)-N-(2,2,4,7a-tetramethyloctahydro-1,4-etanoinden-3a-yl)-acetamide] | 152 ± 30 nM | > 1140 µM |  | IC50 (A/Anhui/1/2013 (H7N9)): 126 ± 11.8 µM; Period of presence in the culture medium giving the most pronounced effect [3]: 0 to 2 h post-infection (hpi); Effect on the hemagglutinating titre of the virus [4]: did not change the hemagglutinating titre of the virus; Inhibition of fusogenic activity of viral HA [5]: highest activity; Inhibition of fusogenic activity of viral HA [6]: less sensitive; Inhibition of fusogenic activity of viral HA (HA of A/Puerto Rico/8/34): highest activity; IC50 [7]: 1.13 ± 0.141 mM; LD50 [8]: > 5000 mg/kg; IC50 (A/Aichi/2/1968 (H3N2)): 789 ± 82 µM; IC50 [9]: 150 nM; IC50 [10]: 10.7 ± 1.3 µM; IC50 [11]: 133 ± 15.6 µM; Inhibition of fusogenic activity of viral HA [12]: did not decrease their fusogenic activity, or this effect was observed only at the highest concentrations |
| NC(=O)c1ncn([C@@H]2O[C@H](CO)[C@@H](O)[C@H]2O)n1 [Ribavirin, reference compound] | 24600 ± 3700 nM |  | >81 | CC50 at 72 h (in vitro): > 2 mM |
| CC(N)C12CC3CC(CC(C3)C1)C2 (stereo not drawn) [Rimantadine, reference compound] | 67000 ± 4900 nM | 335 ± 27 µM | 5 |  |
| C=C1CC/C=C(\C)CC[C@@H]2[C@@H]1CC2(C)C [Caryophyllene] |  |  |  | SI (HSV-1): 140 |
| CC1(C)CC2(NC(=O)c3ccccc3)C3(C)CCCC2(C)C1CC3 (stereo not drawn) [Compound 1d, N-(2,2,4,7a-tetramethyloctahydro-3aH-1,4-ethanoinden-3a-yl)benzamide] | 9200 ± 1100 nM | 141 ± 11.5 µM | 15 |  |
| CCC(=O)NC12CC(C)(C)C3CCC1(C)CCCC32C (stereo not drawn) [Compound 1b, N-(2,2,4,7a-tetramethyloctahydro-3aH-1,4-ethanoinden-3a-yl)propionamide] | 144 ± 19 nM | 128 ± 9.4 µM | 890 | melting point: 103 °C |
| CC(=S)NC12CC(C)(C)C3CCC1(C)CCCC32C (stereo not drawn) [Compound 3, N-(2,2,4,7a-tetramethyloctahydro-3aH-1,4-ethanoinden-3a-yl)ethanethioamide] | 1130 ± 190 nM | > 1130 µM | 1000 |  |
